PubChem BioAssay (NCI)
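Assay format: 96-well plates, 48-hour exposure. TGI: concentration producing complete growth inhibition.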

How the values were obtained:
Assay in all cases: growth of human tumour cells (NCI), 48 h
MDA-MB-435 = test system: MDA-MB-435
SK-MEL-5 melanoma = test system: SK-MEL-5 melanoma
MCF7 breast = test system: MCF7 breast
NCI/ADR-RES ovarian = test system: NCI/ADR-RES ovarian
OVCAR-5 ovarian = test system: OVCAR-5 ovarian
SK-OV-3 ovarian = test system: SK-OV-3 ovarian
NCI-H226 lung = test system: NCI-H226 lung
CCRF-CEM leukemia = test system: CCRF-CEM leukemia
786-0 renal = test system: 786-0 renal
SNB-75 CNS = test system: SNB-75 CNS
SK-MEL-2 melanoma = test system: SK-MEL-2 melanoma

| SMILES | TGI (MDA-MB-435) [µM] | TGI (SK-MEL-5 melanoma) [µM] | TGI (MCF7 breast) [µM] | TGI (NCI/ADR-RES ovarian) [µM] | TGI (OVCAR-5 ovarian) [µM] | TGI (SK-OV-3 ovarian) [µM] | TGI (NCI-H226 lung) [µM] | TGI (CCRF-CEM leukemia) [µM] | TGI (786-0 renal) [µM] | TGI (SNB-75 CNS) [µM] | TGI (SK-MEL-2 melanoma) [µM] |
| --- | --- | --- | --- | --- | --- | --- | --- | --- | --- | --- | --- |
| O=Cc1ccc(Oc2c3ccccc3nc3ccccc23)cc1 | 6.85 | 24.2 | 45.4 | > 100 | 16.7 | 21.6 | 20.2 | 6.72 | 6.16 | 29.5 | – |
| CCN(CC)C(=O)CCNC(C)Cc1c[nH]c2ccccc12 (stereo unspecified) | > 100 | > 100 | – | > 100 | > 100 | > 100 | > 100 | > 100 | > 100 | > 100 | > 100 |
| COc1ccc(C2=Nn3c(C)nnc3S/C2=C\c2ccc(-c3ccc([N+](=O)[O-])cc3)o2)cc1 | 17.9 | 34.4 | 88.7 | 23.2 | 43 | > 100 | 46.2 | > 100 | 22 | – | 40.8 |
| O=C(O)Cc1ccc(-n2nnc3c(=O)[nH][nH]c(=O)c32)cc1 | > 100 | > 100 | > 100 | > 100 | > 100 | – | – | > 100 | > 100 | – | > 100 |
| O=c1ccc2c(Cl)sc(Cl)c2[nH]1 | > 100 | – | > 100 | > 100 | > 100 | > 100 | – | > 100 | > 100 | > 100 | > 100 |
| CCOC(=O)C(C(=O)OCC)C(=S)NC1OC(COC(C)=O)C(OC(C)=O)C(OC(C)=O)C1OC(C)=O (stereo unspecified) | > 100 | > 100 | > 100 | > 100 | > 100 | > 100 | > 100 | > 100 | > 100 | – | > 100 |
| CSc1c(C#N)c(=O)n(N)c2n[nH]c(C)c12 | > 100 | > 100 | > 100 | > 100 | – | > 100 | > 100 | > 100 | > 100 | > 100 | > 100 |
| CCOC(=O)C(/C=N/C(N)=S)=C(/O)c1ccccc1 | > 100 | > 100 | > 100 | > 100 | > 100 | > 100 | > 100 | – | > 100 | > 100 | > 100 |
| COc1ccccc1N1C(=O)/C(=C\c2ccccc2)SC1c1cc(OC)c(OC)c(OC)c1 (stereo unspecified) | 46.5 | > 100 | > 100 | > 100 | > 100 | > 100 | > 100 | – | > 100 | – | 33 |
| COc1ccc(C(CC(=O)c2ccc(O)cc2)C(C(=O)c2ccc(O)cc2)C(c2ccc(OC)cc2)C2C(=O)NC(=S)NC2=O)cc1 (stereo unspecified) | 61.2 | 42.5 | 33.2 | > 100 | 49.6 | – | 40 | 36 | 44.2 | 87.5 | 70.8 |
